Legend:
[1] = tested on: Cultured hippocampal neurons; assay: Quantification of neuronal damage (PI uptake, annexin-V staining) after Aβ-treated MVs; type: cell-based; settings: 20 μM CNQX and 100 μM APV applied together during 1 h exposure to Aβ-treated MVs, read 24 h later
Protocol: (§1) FIG. 12. Cultured hippocampal neurons were loaded with the ratiometric calcium dye FURA-2 for 1 h. During FURA-2 loading, neurons were exposed to microglia-derived microvesicles pre-incubated overnight in neuronal medium in the presence or in the absence of Abeta 1-42 (5 μM). Neurons were then wash in Kreb's ringer and resting calcium levels and calcium responsiveness to glutamate agonists (AMPA 100 μM, NMDA 100 μM) were evaluated using a single cell calcium imaging system. […] PI uptake and fragmentation of neuronal cytoskeleton (C) and staining for annexin-V, quantified in F, indicate that Aβ-treated MVs strongly affect neuronal viability. […] I Quantitative analysis of mean amplitude of calcium responses evoked by AMPA or NMDA in control neurons and neurons exposed to Aβ-treated AD MVs.
Living neurons were exposed annexin-V-FITC, fixed with 4% paraphormaldeyde and counterstained with antibodies direct against the neuronal marker SNAP-25. Apoptotic processes, labelled by annexin-V, were quantified by the Image J software and normalized to SNAP-25 immunoreactivity, as an index of neurite density. […] PI positive nuclei were quantified and normalized to total Hoescht positive nuclei. α-tubulin staining was carried out to evaluate integrity of neuronal cytoskeleton. At least 10 different fields from three independent experiments have been analyzed.

[2] = tested on: Cultured hippocampal neurons; assay: Calcium imaging (FURA-2) of basal cytosolic calcium in neurons exposed to Aβ-treated MVs; type: cell-based; settings: APV and CNQX applied together; FIG. 12G
Protocol: as §1
Polychrome V (TILL Photonics, Grafelfing, Germany) was used as a light source. Fura-2 fluorescence images were collected with a PCO Super VGA SensiCam (Axon Instruments, Forest City, Calif., USA) and analyzed with TILL vision software. […] The ratio values in discrete areas of interest were calculated from sequences of images to obtain temporal analyses. Calcium concentrations were expressed as F340/380 fluorescence ratios.

isolectin IB-4 [3] = assay: Specificity of IB4-FITC labelling of MVs shed from N9 microglia (flow cytometry); type: binding, Baindeiraea Simplicifolia; settings: melibiose pretreatment, FACS, FIG. 5B
From the text: (§2) FIG. 5. IB-4 labeling of microglia/macrophage-derived MVs is specific. A. Differential interference contrast microscopy (right panels) and fluorescent images (left panels) of primary microglia labelled in vivo with IB4-FITC.
(§3) CSF collected from naïve mice or mice exposed to different inflammatory treatments was directly stained with FITC-conjugate Isolectin B4 from Baindeiraea Simplicifolia, (IB4-FITC, SIGMA), and the phosphatydil serine ligand annexin-V in 1% BSA. Specificity of IB4 labelling was evaluated by treating IB4-FITC with 1 M melibiose (6-O-a-D-galactopyranosyl-D-glucose, Sigma M5500) for 30 min before addition to Shed MVs (FIG. 9) as previously described (Ayoub A E et al.). CSF was then diluted in PBS buffer and labelled MVs were acquired within a fixed time interval on a Canto II HTS flow cytometer (Becton Dickinson). Data were analysed using FCS 3 software (Becton Dickinson, Franklin Lakes, N.J., USA). A gate was established on size using beads of 0.5-2 μm. Whithin this gate IB4/annexin-V double positive events (number of events/μl) were evaluated as a parameter of MVs concentration in the CSF. […] IB4 and annexin-V double positive events were evaluated as a parameter of shed MVs concentration while IB4 and CD63 double positive events was evaluated as a parameter of exosome concentration. […]

isolectin IB-4 [4] = assay: Specificity of IB4-FITC labelling of primary microglia (fluorescence microscopy); type: binding, Baindeiraea Simplicifolia; settings: IB4-FITC pretreated with 1M melibiose, FIG. 5A
From the text: as §2, §3

Primary mouse microglia = assay: Release of AnnexinV+ shed vesicles from ATP-stimulated microglia, measured by FACS; type: cell-based; settings: FIG. 13
Protocol: FIG. 13. FTY720 treatment. Primary mouse microglia was pre-treated, or not, with FTY720, also named fingolimod or Gylenia, currently in course of registration for the treatment of multiple sclerosis, for 30 min., then ATP was added for further 30 min. to induce the release of AnnexinV^+ shed vesicles, as measured by FACS.
Dendrites of neurons exposed to Aβ1-42-treated-MVs have a frequently fragmented or beaded appearance (FIG. 12D), display abnormal cytoplasmic calcium concentration (FIG. 12A) and reduced responsiveness to glutamate agonists (FIG. 12B). […] Similar detrimental effects are induced in cultured neurons by MVs isolated from AD CSF, pre-incubated with Aβ1-42 (FIG. 12H-I). Finally, primary mouse microglia was pre-treated, or not, with FTY720, also named fingolimod or Gylenia (FIG. 13), currently in course of registration for the treatment of multiple sclerosis, for […], then ATP was added for 30 min. to induce the release of AnnexinV^+ shed vesicles, as measured by FACS. […] Therefore, the number of shed vesicles in the CSF of treated patients represents a biomarker of therapeutic efficacy of MS or other neurological disorders therapeutic treatment.

[5] = target: T1, acid sphingomyelinase (A-SMase) (Homo sapiens, UniProt P17405); settings: recently identified; mechanism similar to tricyclic antidepressants; cited from earlier work
T1 sequence (P17405 47-631): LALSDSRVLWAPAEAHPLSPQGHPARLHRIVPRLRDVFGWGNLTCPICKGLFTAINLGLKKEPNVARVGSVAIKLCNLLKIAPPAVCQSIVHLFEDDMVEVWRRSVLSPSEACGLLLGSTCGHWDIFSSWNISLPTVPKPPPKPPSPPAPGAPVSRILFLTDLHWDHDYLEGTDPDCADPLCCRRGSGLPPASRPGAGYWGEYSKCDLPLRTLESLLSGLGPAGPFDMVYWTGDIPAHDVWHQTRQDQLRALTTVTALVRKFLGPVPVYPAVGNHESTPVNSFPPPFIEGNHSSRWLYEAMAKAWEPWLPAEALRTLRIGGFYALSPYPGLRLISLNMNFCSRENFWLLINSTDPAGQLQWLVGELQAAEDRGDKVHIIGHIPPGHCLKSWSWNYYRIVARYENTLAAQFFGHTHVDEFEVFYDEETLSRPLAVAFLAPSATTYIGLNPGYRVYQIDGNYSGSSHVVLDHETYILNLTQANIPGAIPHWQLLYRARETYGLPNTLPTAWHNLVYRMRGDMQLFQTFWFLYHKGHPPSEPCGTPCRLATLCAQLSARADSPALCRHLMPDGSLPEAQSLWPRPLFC

## N#Cc1cc2[nH]c(=O)c(=O)[nH]c2cc1[N+](=O)[O-] [CNQX]
[1]
  neuronal damage caused by Aβ-treated MVs (PI uptake, annexin-V staining): strongly prevented
[2]
  increase in cytoplasmic calcium level induced by Aβ-treated MVs: almost completely inhibited

## N[C@@H](CCCP(=O)(O)O)C(=O)O [APV]
[1]
  neuronal damage caused by Aβ-treated MVs (PI uptake, annexin-V staining): strongly prevented
[2]
  increase in cytoplasmic calcium level induced by Aβ-treated MVs: almost completely inhibited

## OC[C@H]1O[C@H](OC[C@H]2OC(O)[C@H](O)[C@@H](O)[C@@H]2O)[C@H](O)[C@@H](O)[C@H]1O (stereo partly drawn) [melibiose, 6-O-a-D-galactopyranosyl-D-glucose]
Isolectin IB-4 [3]
  IB4-FITC labeling of intact MVs: completely abolished IB4-FITC labeling
Isolectin IB-4 [4]
  IB4-FITC binding to the cell surface: completely prevents its binding to the cell surface

## CCCCCCCCc1ccc(CCC(N)(CO)CO)cc1 [FTY720]
Primary mouse microglia
  MP shedding: potently inhibits MP shedding
Primary mouse microglia; FTY720 pre-treatment 30 min, then ATP for further 30 min
  release of AnnexinV+ shed vesicles: completely prevented the release of shed vesicles above background levels
Primary mouse microglia; FTY720 pre-treatment 18 h, then ATP 30 min
  release of AnnexinV+ shed vesicles: completely prevented the release of shed vesicles above background levels
[5]
  inhibition of A-SMase: inhibitor of A-SMase

Source: patent US8999655B2, “Increase of myeloid microvesicles in the cerebrospinal fluid as biomarker of microglia/macrophage activation in neurological disorders” (Consiglio Nazionale delle Ricerche, priority 2010, dated 2015)
